Reference: PMC8876255 (Bioorganic & medicinal chemistry letters, 2021)

Columns and labels:
MDA-MB-231 cells = assay: Cancer cell viability assay; format: cell-based
[1] = test system: UPR markers sXbp1, HSPA5A (BiP), DDIT3 (CHOP) in MDA-MB-231 cells; assay: UPR / ER stress gene induction by qPCR; format: cell-based; conditions: MDA-MB-231, 6 h, 2 times the EC50, qPCR

| SMILES | inhibitory effect on cell growth (MDA-MB-231 cells; MDA-MB-231 viability assay, negative control) | additive or synergistic effect with JMS-053 on viability (MDA-MB-231 cells; addition of 20–60 μM 4 to MDA-MB-231 cells treated with JMS-053) | accumulation of spliced Xbp1 transcription factor [1] | expression of pro-apoptotic gene CHOP (DDIT3) [1] |
| --- | --- | --- | --- | --- |
| O=C(CC12CC3CC(CC(C3)C1)C2)NCCCCO [Compound 4] | negligible inhibitory effects on cell growth | failed to detect any changes in viability |  |  |
| N=C1C(=O)NC(=O)c2cc(-c3ccc(OCCCCNC(=O)CC45CC6CC(CC(C6)C4)C5)cc3)sc21 [Compound 7a] |  |  | moderate accumulation | strongly enhanced expression |
| O=C(CC12CC3CC(CC(C3)C1)C2)NCCCCOc1ccc(-c2cc3c(s2)C(=O)C(=O)NC3=O)cc1 [Compound 7b] |  |  | significantly lower accumulation |  |
